Test system: SW 982 tumor spheroid viability
Assay: Anticancer human tumor SW 982 cell line growth inhibition;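 also: spheroids exposed to compound for 7 days before readout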
Settings: spheroids with HUVEC and MSC; for IC50: curve of first compound; for viability, T/C: stronger effect = lower value
Source text: Multicellular complex tumor spheroid response to DNA repair inhibitors in combination with DNA-damaging drugs
This study explores the anticancer activities of DNA-damaging drugs and inhibitors of DNA damage repair, both as single agents and in combinations. Complex tumor spheroids comprised of malignant cells, endothelial cells and mesenchymal stem cells served as an in vitro model for human solid tumors. This model system incorporates physiologically relevant features and patient-derived or established malignant cell lines with clinically relevant genetic alterations from many tumor types. Twenty-six patient-derived or established malignant cell lines were evaluated representing sarcoma, melanoma, small cell lung cancer (SCLC), non-small cell lung cancer (NSCLC), as well as bladder, ovarian and pancreatic cancers. The concentration ranges selected for each drug and investigational agent were based upon clinically achievable concentrations if the clinical Cmax of the agent was known.
Compounds. The drugs and compounds olaparib (NSC753686), talazoparib (NSC767125), berzosertib (NSC777718), elimusertib (NSC800525), nedisertib (NSC802822), VX-984 (NSC792969), AZD-1390 (NSC803789), temozolomide (NSC362856), topotecan (NSC609699), trabectedin (NSC813783), staurosporine (NSC755774), and gemcitabine (NSC613327) were obtained from the National Cancer Institute (NCI) Developmental Therapeutics Program Chemical Repository. The FDA-approved anticancer drug set is available from the Developmental Therapeutics Program at https://dtp.cancer.gov/organization/dscb/obtaining/available_plates.htm. […] The stock solutions were prepared in dimethyl sulfoxide (DMSO, Sigma-Aldrich, St. Louis, MO, cat. D2650) at 400-fold the tested concentration and stored at -70 degrees C. Prior to their use, the stock solutions were diluted in fresh medium and the final DMSO concentration in the assay was 0.25% (v/v). All drugs and investigational agents were tested over a range starting from a high concentration at or near the clinical Cmax and decreasing in half-log increments. If the clinical Cmax for an agent had not been determined, the highest concentration tested was 10 microM.
Cell Lines. The patient-derived cancer cell (PDC) lines: 156681-154-R-J1-PDC, 283228-195-R-J1-PDC, 287954-098-R-J1-PDC, 292921-168-R-J2-PDC, 349418-098-R-PDC, 425362-245-T-J1-PDC, 556581-035-R-J1-PDC, and BL0293-F563-PDC were received from the NCI Patient-Derived Models Repository (PDMR, https://pdmr.cancer.gov). The established cell lines HS-SY-2 (RRID:CVCL_8719), MPNST, and SYO-1 (RRID:CVCL_7146) were obtained from the Sloan Kettering Institute. The alveolar soft parts sarcoma cell line ASPS-1 (RRID:CVCL_S738) was established at the NCI and grown from internal seed stocks. The following established cell lines were purchased from the American Type Culture Collection (ATCC, Manassas, VA): G-401 (ATCC, cat. CRL-1441, RRID:CVCL_0270), SW982 (ATCC, cat. HTB-93, RRID:CVCL_1734), VA-ES-BJ (ATCC, cat. CRL-2138, RRID:CVCL_1785), NCI-H719 (ATCC, cat. CRL-5837, RRID:CVCL_1582), NCI-H196 (ATCC, cat. CRL-5823, RRID:CVCL_1509), NCI-H841 (ATCC, cat. CRL-5845, RRID:CVCL_1595), NCI-H1618 (ATCC, cat. CRL-5879, RRID:CVCL_1480), NCI-H1876 (ATCC, cat. CRL-5902, RRID:CVCL_1503), DMS 114 (ATCC, cat. CRL-2066; RRID:CVCL_1174), NCI-H211 (ATCC, cat. CRL-5824; RRID:CVCL_1529), and SW 1271 (ATCC, cat. CRL-2177, RRID:CVCL_1716). The small cell lung cancer cell line COR-L88 was purchased from Sigma-Aldrich (cat. 92031917-1VL, RRID:CVCL_1141). The non-small cell lung cancer cell lines NCI-H226 (RRID:CVCL_1544) and NCI-H322M (RRID:CVCL_1557) were established at the NCI and grown from internal seed stocks. Pooled donor human umbilical vein endothelial cells (HUVEC, Lonza, cat. CC-2519) and human mesenchymal stem cells (hMSC, Lonza, cat. PT-2501) were purchased from Lonza (Walkersville, MD).
Cell Culture. All cells were maintained in an incubator at 37 degrees C and 5% CO2 with 95% humidity. […]

How did the IC50 (second compound 0.003 µM) turn out when COc1cc(C)[nH]c(=O)c1CN1CCc2c(Cl)cc(C(OC)C3COC3)c(Cl)c2C1=O (stereo not given) + CC[C@@]1(O)C(=O)OCc2c1cc1n(c2=O)Cc2cc3c(CN(C)C)c(O)ccc3nc2-1 was run?
Its IC50 is > 10 µM.

What about the IC50 (second compound 0.00949 µM) of the same compound?
Its IC50 is > 10 µM.

What about the IC50 (second compound 0.03 µM) of the same compound?
Its IC50 is > 10 µM.

And the IC50 (second compound 0.0949 µM)?
Its IC50 is > 10 µM.

And the IC50 (second compound 0.3 µM)?
Its IC50 is < 0.0316 µM.

What about the viability, T/C (second compound 0.003 µM, first compound 0.0316 µM) of the same compound?
Its viability, T/C is 87.8%.

And the viability, T/C (second compound 0.003 µM, first compound 0.1 µM)?
The viability, T/C was 81.4%.

And the viability, T/C (second compound 0.003 µM, first compound 0.316 µM)?
Its viability, T/C is 90.5%.

What about the viability, T/C (second compound 0.003 µM, first compound 1 µM) of the same compound?
The viability, T/C was 89.8%.

What about the viability, T/C (second compound 0.003 µM, first compound 3.16 µM) of the same compound?
The viability, T/C was 87.8%.

And the viability, T/C (second compound 0.003 µM, first compound 10 µM)?
Its viability, T/C is 90.4%.

What about the viability, T/C (second compound 0.00949 µM, first compound 0.0316 µM) of the same compound?
The viability, T/C was 74.8%.

What about the viability, T/C (second compound 0.00949 µM, first compound 0.1 µM) of the same compound?
The viability, T/C was 77.3%.

What about the viability, T/C (second compound 0.00949 µM, first compound 0.316 µM) of the same compound?
Its viability, T/C is 75.1%.

What about the viability, T/C (second compound 0.00949 µM, first compound 1 µM) of the same compound?
The viability, T/C was 79.4%.

And the viability, T/C (second compound 0.00949 µM, first compound 3.16 µM)?
Its viability, T/C is 82.7%.

And the viability, T/C (second compound 0.00949 µM, first compound 10 µM)?
Its viability, T/C is 83%.

And the viability, T/C (second compound 0.03 µM, first compound 0.0316 µM)?
Its viability, T/C is 77.7%.

And the viability, T/C (second compound 0.03 µM, first compound 0.1 µM)?
The viability, T/C was 66.8%.

What about the viability, T/C (second compound 0.03 µM, first compound 0.316 µM) of the same compound?
The viability, T/C was 70.8%.

What about the viability, T/C (second compound 0.03 µM, first compound 1 µM) of the same compound?
Its viability, T/C is 75.8%.

What about the viability, T/C (second compound 0.03 µM, first compound 3.16 µM) of the same compound?
The viability, T/C was 69%.

What about the viability, T/C (second compound 0.03 µM, first compound 10 µM) of the same compound?
The viability, T/C was 72.5%.

What about the viability, T/C (second compound 0.0949 µM, first compound 0.0316 µM) of the same compound?
The viability, T/C was 58.2%.

And the viability, T/C (second compound 0.0949 µM, first compound 0.1 µM)?
The viability, T/C was 56%.

What about the viability, T/C (second compound 0.0949 µM, first compound 0.316 µM) of the same compound?
Its viability, T/C is 65%.

And the viability, T/C (second compound 0.0949 µM, first compound 1 µM)?
The viability, T/C was 63%.

And the viability, T/C (second compound 0.0949 µM, first compound 3.16 µM)?
The viability, T/C was 66%.

And the viability, T/C (second compound 0.0949 µM, first compound 10 µM)?
The viability, T/C was 76.5%.

And the viability, T/C (second compound 0.3 µM, first compound 0.0316 µM)?
The viability, T/C was 49.4%.

What about the viability, T/C (second compound 0.3 µM, first compound 0.1 µM) of the same compound?
The viability, T/C was 47.2%.

What about the viability, T/C (second compound 0.3 µM, first compound 0.316 µM) of the same compound?
The viability, T/C was 42.9%.

And the viability, T/C (second compound 0.3 µM, first compound 1 µM)?
The viability, T/C was 41.2%.

And the viability, T/C (second compound 0.3 µM, first compound 3.16 µM)?
Its viability, T/C is 48.2%.

And the viability, T/C (second compound 0.3 µM, first compound 10 µM)?
The viability, T/C was 52.4%.

— PubChem BioAssay AID1845216 (Molecular Pharmacology Branch, DTP, NCI, 2023)
